Values quoted from earlier work in US8293290B2, “Annatto extract compositions, including geranyl geraniols and methods of use” (American River Nutrition, Inc., priority 2003, dated 2012).

Tests used:
[1] = exogenous oral supplementation
prostate cancer patients = conditions: after one year of CoQ10 supplementation
[2] = system: untransformed cells or normal cells
PPARγ = biological target: T1, PPARγ (Mus musculus, UniProt P37238); conditions: at the adipocytes
T1 construct: host or cells: 3T3-L1 adipocytes (from the cited title only)
T1 sequence (P37238 1-505): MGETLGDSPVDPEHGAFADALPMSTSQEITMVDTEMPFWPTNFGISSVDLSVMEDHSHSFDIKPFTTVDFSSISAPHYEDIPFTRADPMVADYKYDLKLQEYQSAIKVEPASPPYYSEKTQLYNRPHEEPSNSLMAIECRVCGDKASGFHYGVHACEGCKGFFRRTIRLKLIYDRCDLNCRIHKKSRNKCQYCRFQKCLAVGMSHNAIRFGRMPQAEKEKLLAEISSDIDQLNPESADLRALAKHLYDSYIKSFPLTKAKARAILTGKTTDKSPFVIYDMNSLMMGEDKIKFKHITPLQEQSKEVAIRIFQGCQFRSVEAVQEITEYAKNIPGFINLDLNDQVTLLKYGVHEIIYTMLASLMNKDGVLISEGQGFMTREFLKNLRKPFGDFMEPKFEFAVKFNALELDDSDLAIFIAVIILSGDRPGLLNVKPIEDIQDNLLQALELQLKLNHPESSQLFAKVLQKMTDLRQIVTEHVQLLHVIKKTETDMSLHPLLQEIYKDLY

PPARα = biological target: T2, PPARα (Homo sapiens, UniProt Q07869); conditions: at the hepatocytes
T2 construct: host or cells: HepG2 hepatocytes (from the cited title only)
T2 sequence (Q07869 1-468): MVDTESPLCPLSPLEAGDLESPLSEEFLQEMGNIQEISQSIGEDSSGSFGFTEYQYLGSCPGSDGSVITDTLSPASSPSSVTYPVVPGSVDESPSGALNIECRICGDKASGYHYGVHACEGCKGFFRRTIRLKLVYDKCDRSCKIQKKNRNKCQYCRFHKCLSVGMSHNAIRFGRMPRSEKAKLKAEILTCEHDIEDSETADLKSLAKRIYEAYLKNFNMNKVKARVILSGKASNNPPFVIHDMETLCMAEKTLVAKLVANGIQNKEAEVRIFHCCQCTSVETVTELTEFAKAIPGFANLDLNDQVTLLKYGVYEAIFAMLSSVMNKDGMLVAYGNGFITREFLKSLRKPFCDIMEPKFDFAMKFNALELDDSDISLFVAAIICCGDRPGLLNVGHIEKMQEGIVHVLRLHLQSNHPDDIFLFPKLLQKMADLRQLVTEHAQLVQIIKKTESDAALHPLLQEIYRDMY

fraction of supplemental CoQ10 absorbed [1]	PPARγ activation (PPARγ)	PPARα activation (PPARα)	inhibition of cytochrome P450 enzymes (incl. CYP3A4) (cytochrome P450 enzymes)	SMILES	decrease of prostate mass (prostate cancer patients)	decrease of prostate specific antigen (PSA) (prostate cancer patients)	cytotoxicity (cell rounding, indicator of myotoxicity) [2]	toxicity to untransformed cells or normal cells [2]
less than 5%				COC1=C(OC)C(=O)C(C/C=C(\C)CC/C=C(\C)CC/C=C(\C)CC/C=C(\C)CC/C=C(\C)CC/C=C(\C)CC/C=C(\C)CC/C=C(\C)CC/C=C(\C)CCC=C(C)C)=C(C)C1=O [CoQ10, coenzyme Q10]	47%	71%		
	activates	activates	does not inhibit	CC(C)=CCC/C(C)=C/CC/C(C)=C/CC/C(C)=C/CO [GG, Geranyl geraniol]			not cytotoxic	not toxic
